Reference: publication PMC6862323, “Substitution of Arginine 120 in Human D-Amino Acid Oxidase Favors FAD-Binding and Nuclear Mistargeting” (Frontiers in Molecular Biosciences, 2019)
Where two headings read alike, the source gives them in different places. Blank lines part the entries; values can stand above or below the compound they belong to.

Key:
R120E hDAAO variant [1] = biological target: T1, R120E hDAAO variant (Homo sapiens, UniProt P14920, R120E); test: Apparent kinetic parameters on D-amino acids (oxygen electrode), R120E hDAAO; type: biochemical; conditions: air saturation, 25°C, pH 8.5, 0.2 mM FAD
T1 construct: His-tag (N); made in house; host or cells: E. coli BL21 (DE3) Star
Protocol: (§1) The kinetic parameters were determined on different D-amino acids, employing increasing substrate concentrations (Molla et al., [2000], [2006]). The apparent kinetic parameters were calculated using the initial reaction rate according to a Michaelis–Menten equation using the Kaleidagraph software (Synergy Software, Reading, PA, USA).
(§2) The apparent kinetic parameters were calculated according to a Michaelis–Menten equation using the initial velocity values determined at increasing D-amino acid concentrations and a fixed O2 concentration (air saturation) at pH 8.5 and 25°C, in the presence of 0.2 mM FAD to avoid apoprotein formation for wild-type hDAAO.

wild-type hDAAO [2] = system: wild-type hDAAO; design: method as in Molla et al. (2006) and Murtas et al. (2017); conditions: air saturation, 25°C, pH 8.5, ref Molla et al. (2006) and Murtas et al. (2017), cited from earlier work
R120L hDAAO variant [3] = biological target: T2, R120L hDAAO variant (Homo sapiens, UniProt P14920, R120L); test: Apparent kinetic parameters on D-amino acids (oxygen electrode), R120L hDAAO; type: biochemical; conditions: air saturation, 25°C, pH 8.5, 0.2 mM FAD
T2 construct: His-tag (N); made in house; host or cells: E. coli BL21 (DE3) Star
Protocol: as §1, §2

R120L hDAAO variant [4] = biological target: T2, R120L hDAAO variant; test: FAD and ligand binding by quenching of protein fluorescence, R120L hDAAO
Protocol: (§3) Protein fluorescence spectra were recorded between 300 and 400 nm, with excitation at 280 nm using a Jasco FP-750 instrument (excitation slit of 10 nm; emission slit of 5 nm) in 10 mM potassium phosphate, pH 8.0, 1% (v/v) glycerol, 5 mM 2-mercaptoethanol, […]

W209R hDAAO = system: W209R hDAAO; design: method as in Cappelletti et al., 2015; conditions: compared with wild-type hDAAO; ref Cappelletti et al., 2015; cited from earlier work
R120E hDAAO variant [5] = biological target: T1, R120E hDAAO variant; test: FAD and ligand binding by quenching of protein fluorescence, R120E hDAAO
Protocol: as §3

wild-type hDAAO [6] = conditions: ref Murtas et al. (2017), cited from earlier work
[7] = Standard DAAO activity assay of purified hDAAO variants (oxygen electrode, 28 mM D-alanine); type: biochemical; conditions: pH 8.5, 25°C
U87 glioblastoma cells = test: Confocal analysis of cellular distribution of EYFP-hDAAO variants in transiently transfected U87 cells; type: cell-based, human
Protocol: Human U87 glioblastoma cells (ATCC) were cultured in DMEM supplemented with 10% fetal bovine serum, 1 mM sodium pyruvate, 2 mM L-glutamine, 1% non-essential amino acids, 1% penicillin/streptomycin, and 1% amphotericin B (Euroclone), at 37°C in 5% CO2. The cells were transfected either with the pEYFP-hDAAO-C3 construct (for the expression of the wild-type enzyme downstream of the enhanced yellow fluorescent protein, EYFP) (Sacchi et al., [2008], [2011]), the pEYFP-hDAAO(R120L)-C3, or the pEYFP-hDAAO(R120E)-C3 expression vectors. The latter constructs were obtained by mutagenesis using the QuikChange Lightning Site-Directed Mutagenesis Kit (Agilent), and the following primers: 5′-[…]-3′ and 5′-[…]-3′ for the R120E substitution, and 5-[…]-3′ and 5′-[…]-3′ for the R120L substitution.
For transient transfection, 2 ×10^4 cells were seeded into eight-well chamber slides (Sarstedt). At 24 h after seeding, cells were transfected with 2 μg plasmid DNA using a 4:1 ratio of FuGENE transfection reagent (Promega) to DNA. Then, 12.5 μL of transfection mix was added to 500 μL medium per well. Protein expression levels were monitored by using a fluorescence microscope (Olympus IX51) equipped with a FITC filter and by Western blot analysis using an anti-hDAAO antibody (Davids Biotechnologie) (Sacchi et al., [2008], [2011]).
At 24, 48, and 72 h after transfection, cells were washed twice with PBS and fixed with ice-cold 4% p-formaldehyde and 4% sucrose for 10 min at room temperature. After fixation, cells were washed twice with PBS and blocked by incubation in PBS supplemented with 0.2% Triton X-100 and 4% horse serum for 30 min at room temperature. Peroxisomes were stained using rabbit polyclonal anti-PMP70 (peroxisomal membrane protein 70, Sigma), diluted 1:500 in PBS, 0.1% Triton X-100, and 4% horse serum overnight at 4°C; they were then washed twice in PBS and 1% horse serum and incubated for 1 h at room temperature (light protected) with goat anti-rabbit Dylight 550 secondary antibodies (Abcam) diluted 1:400 in PBS, 0.1% Triton X-100, and 1.5% horse serum. Cells were then extensively washed in PBS and nuclei were stained with DRAQ5™ (Thermo Scientific) and diluted 1:500 in PBS for 10 min at room temperature in the dark. Cells were washed three times with PBS and stored in PBS at 4°C until imaging.
Immunostained cells were imaged using an inverted laser scanning confocal microscope (TCS SP5, Leica Microsystems), equipped with a 63.0 ×1.25 NA plan apochromatic oil immersion objective. Confocal image stacks were acquired using the Leica TCS software with a sequential mode to avoid interference between each channel and without saturating any pixel. Cells in 10–15 non-magnified optical fields were analyzed for each condition (i.e., different EYFP-hDAAO expression constructs at different times after transfection). The fluorescence signal corresponding to the overexpressed EYFP-hDAAO variants was monitored by excitation at 514 nm (yellow channel); the peroxisomal and nuclear cellular compartments were imaged by excitation at 546 nm (red channel) and 647 nm (blue channel), respectively.
U87 glioblastoma cells were transiently transfected with a pEYFP-hDAAO-C3 plasmid encoding for EYFP-hDAAO chimeric proteins harboring R, E, or L at position 120 of the flavoenzyme. […] A similar amount of transfected cells (expressing EYFP-hDAAO protein) was obtained for all three constructs (Table 4). The percentage of cells showing a cytosolic, peroxisomal, and nuclear localization of the flavoenzyme was determined by comparing the yellow fluorescence signal of EYFP-hDAAO variants with those of the markers PMP-70 (for peroxisomes) and DRAQ5™ dye (for nuclei, Figure 5). The amount of cytosolic wild-type EYFP-hDAAO decreased with time after transfection (28% of the signal is cytosolic at 72 h vs. 94% at 24 h), as did the amount of nuclear signal (Table 4 and Figure 6). […]

[8] = apoprotein, no benzoate, read-out: FAD Kd, free form, first saturation phase
[9] = apoprotein, no benzoate, read-out: FAD Kd, free form, second saturation phase
[10] = in presence of 70 μM benzoate, read-out: FAD Kd, benzoate complex, first saturation phase
[11] = in presence of 70 μM benzoate, read-out: FAD Kd, benzoate complex, second saturation phase

T2 sequence (P14920 whole entry R120L): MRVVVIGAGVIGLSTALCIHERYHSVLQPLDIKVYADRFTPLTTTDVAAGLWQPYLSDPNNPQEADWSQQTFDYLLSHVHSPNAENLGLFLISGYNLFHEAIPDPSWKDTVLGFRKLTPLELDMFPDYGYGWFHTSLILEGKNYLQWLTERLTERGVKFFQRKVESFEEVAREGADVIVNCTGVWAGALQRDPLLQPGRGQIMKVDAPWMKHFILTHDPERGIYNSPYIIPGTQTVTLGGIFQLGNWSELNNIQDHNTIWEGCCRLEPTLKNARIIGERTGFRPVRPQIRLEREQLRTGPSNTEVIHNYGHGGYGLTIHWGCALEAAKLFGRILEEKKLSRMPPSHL
T1 sequence (P14920 whole entry R120E): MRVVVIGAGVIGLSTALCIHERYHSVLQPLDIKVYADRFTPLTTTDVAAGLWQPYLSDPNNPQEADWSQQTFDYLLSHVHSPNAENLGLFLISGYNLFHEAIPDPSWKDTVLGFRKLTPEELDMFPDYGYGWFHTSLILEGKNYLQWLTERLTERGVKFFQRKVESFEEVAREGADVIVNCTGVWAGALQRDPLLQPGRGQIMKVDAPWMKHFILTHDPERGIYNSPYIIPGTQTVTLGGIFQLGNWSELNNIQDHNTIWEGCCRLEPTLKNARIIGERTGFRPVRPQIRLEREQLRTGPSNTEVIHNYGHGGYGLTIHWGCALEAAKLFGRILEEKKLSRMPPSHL

- Km (R120E hDAAO variant [1]): 600 ± 100 µM
- apparent kcat (R120E hDAAO variant [1]): 9.9 ± 0.5 s⁻¹
- Km (R120L hDAAO variant [3]): 700 ± 100 µM
- apparent kcat (R120L hDAAO variant [3]): 15.6 ± 0.7 s⁻¹
Compound: N[C@H](CS)C(=O)O [D-Cys, D-cysteine]
- apparent kcat (wild-type hDAAO [2]): 8.6 ± 0.2 s⁻¹
- Km (wild-type hDAAO [2]; read-out: apparent Km): 600 ± 100 µM

- amplitude of fluorescence change, FAD binding, free form, first phase (R120L hDAAO variant [4]; apoprotein, no benzoate): 60%
- amplitude of fluorescence change, FAD binding, free form, second phase (R120L hDAAO variant [4]; apoprotein, no benzoate): 40%
- Kd (R120L hDAAO variant [4]; [8]): 50 ± 10 nM
- Kd (R120L hDAAO variant [4]; [9]): 23100 ± 1000 nM
- amplitude of fluorescence change, FAD binding, benzoate complex, first phase (R120L hDAAO variant [4]; in presence of 70 μM benzoate): 75%
- amplitude of fluorescence change, FAD binding, benzoate complex, second phase (R120L hDAAO variant [4]; in presence of 70 μM benzoate): 25%
- Kd (R120L hDAAO variant [4]; [10]): 70 ± 10 nM
- Kd (R120L hDAAO variant [4]; [11]): ≥ 20000 nM
- amplitude of fluorescence change, FAD binding, free form, first phase (R120E hDAAO variant [5]; apoprotein, no benzoate): 65%
- amplitude of fluorescence change, FAD binding, free form, second phase (R120E hDAAO variant [5]; apoprotein, no benzoate): 35%
- Kd (R120E hDAAO variant [5]; [8]): 50 ± 10 nM
- Kd (R120E hDAAO variant [5]; [9]): 32000 ± 3000 nM
- amplitude of fluorescence change, FAD binding, benzoate complex, first phase (R120E hDAAO variant [5]; in presence of 70 μM benzoate): 65%
- amplitude of fluorescence change, FAD binding, benzoate complex, second phase (R120E hDAAO variant [5]; in presence of 70 μM benzoate): 35%
- Kd (R120E hDAAO variant [5]; [10]): 610 ± 80 nM
- Kd (R120E hDAAO variant [5]; [11]): ≥ 30000 nM
Compound: Cc1cc2nc3c(=O)[nH]c(=O)nc-3n(C[C@H](O)[C@H](O)[C@H](O)COP(=O)(O)OP(=O)(O)OC[C@H]3O[C@@H](n4cnc5c(N)ncnc54)[C@H](O)[C@@H]3O)c2cc1C [FAD]
- tighter FAD-binding (fold) (W209R hDAAO): 4 fold
- Kd (wild-type hDAAO [6]; [8]): 430 ± 20 nM
- Kd (wild-type hDAAO [6]; [9]): ≥ 30000 nM
- Kd (wild-type hDAAO [6]; in presence of 70 μM benzoate, monophasic, read-out: FAD Kd, benzoate complex): 480 ± 20 nM

Compound: R120L: hDAAO variant with Arg120 substituted by leucine (His-tagged from E. coli; EYFP-tagged in U87 cells)
- Specific activity [7]: 17.6 U/mg protein
- hDAAO cellular distribution: A, large cytosolic aggregates detected (U87 glioblastoma cells; 24 h after transfection): 41.5 % of transfected cells
- hDAAO cellular distribution: C, cytosol (U87 glioblastoma cells; 24 h after transfection): 93.1 % of transfected cells
- hDAAO cellular distribution: C/P, mixed, cytosol and peroxisomes (U87 glioblastoma cells; 24 h after transfection): 3.8 % of transfected cells
- hDAAO cellular distribution: N, nucleus (U87 glioblastoma cells; 24 h after transfection): 20.8 % of transfected cells
- hDAAO cellular distribution: P, peroxisomes (U87 glioblastoma cells; 24 h after transfection): 3.1 % of transfected cells
- hDAAO cellular distribution: A, large cytosolic aggregates detected (U87 glioblastoma cells; 48 h after transfection): 22.6 % of transfected cells
- hDAAO cellular distribution: C, cytosol (U87 glioblastoma cells; 48 h after transfection): 59.7 % of transfected cells
- hDAAO cellular distribution: C/P, mixed, cytosol and peroxisomes (U87 glioblastoma cells; 48 h after transfection): 21.0 % of transfected cells
- hDAAO cellular distribution: N, nucleus (U87 glioblastoma cells; 48 h after transfection): 20.2 % of transfected cells
- hDAAO cellular distribution: P, peroxisomes (U87 glioblastoma cells; 48 h after transfection): 19.4 % of transfected cells
- hDAAO cellular distribution: A, large cytosolic aggregates detected (U87 glioblastoma cells; 72 h after transfection): 35.6 % of transfected cells
- hDAAO cellular distribution: C, cytosol (U87 glioblastoma cells; 72 h after transfection): 45.5 % of transfected cells
- hDAAO cellular distribution: C/P, mixed, cytosol and peroxisomes (U87 glioblastoma cells; 72 h after transfection): 21.2 % of transfected cells
- hDAAO cellular distribution: N, nucleus (U87 glioblastoma cells; 72 h after transfection): 13.1 % of transfected cells
- hDAAO cellular distribution: P, peroxisomes (U87 glioblastoma cells; 72 h after transfection): 34.3 % of transfected cells
